According to paper PMC7673538 (PLoS Biology, 2020):
Values joined by “and” are separate entries in the source; they are usually repeats but may differ in a detail not shown here. Equal entries are not always repeated. Where two headings read alike, the source gives them in different places.

Tests used:
CV-A24 = assay: microbe, parasite or virus in culture; assay type: cell-based, coxsackievirus A24
human DAT = target: T1, human DAT (Homo sapiens, UniProt Q01959); assay type: cell-based; details: for DAT, Mean (Figure 8B): Control = 100; for DAT, Mean as % (Figure 8B): Control = 100%
T1 construct: expressed in transfected cells; host or cells: HEK293 (gift of Dr. Hoener, F. Hoffmann-La Roche)

human SERT = target: T2, human SERT (Homo sapiens, UniProt P31645); assay type: cell-based; details: for SERT, Mean (Figure 8B): Control = 100.00; for SERT, Mean as % (Figure 8B): Control = 100%
T2 construct: expressed in transfected cells; host or cells: HEK293 (gift of Dr. Hoener, F. Hoffmann-La Roche)

EV-A71 (strain BrCr) = assay type: cell-based, enterovirus A71
HRV-B14 = assay: microbe, parasite or virus in culture; assay type: cell-based, human rhinovirus; details: for EC50: Human rhinovirus sp.
human NET = target: T3, human NET (Homo sapiens, UniProt P23975); assay type: cell-based; details: for NET, Mean (Figure 8B): Control = 100; for NET, Mean as % (Figure 8B): Control = 100%
T3 construct: expressed in transfected cells; host or cells: HEK293 (gift of Dr. Hoener, F. Hoffmann-La Roche)

CV-B3 = assay: microbe, parasite or virus in culture; assay type: cell-based, coxsackievirus B3; details: Enterovirus B, CVB3, BGM
CV-A24 (strain Joseph) = assay type: cell-based, coxsackievirus A24
HRV-A2 = assay: microbe, parasite or virus in culture; assay type: cell-based, human rhinovirus
CV-A24v = assay: microbe, parasite or virus in culture; assay type: cell-based, coxsackievirus A24v; details: for EC50: Coxsackievirus

T3 sequence (P23975 whole entry): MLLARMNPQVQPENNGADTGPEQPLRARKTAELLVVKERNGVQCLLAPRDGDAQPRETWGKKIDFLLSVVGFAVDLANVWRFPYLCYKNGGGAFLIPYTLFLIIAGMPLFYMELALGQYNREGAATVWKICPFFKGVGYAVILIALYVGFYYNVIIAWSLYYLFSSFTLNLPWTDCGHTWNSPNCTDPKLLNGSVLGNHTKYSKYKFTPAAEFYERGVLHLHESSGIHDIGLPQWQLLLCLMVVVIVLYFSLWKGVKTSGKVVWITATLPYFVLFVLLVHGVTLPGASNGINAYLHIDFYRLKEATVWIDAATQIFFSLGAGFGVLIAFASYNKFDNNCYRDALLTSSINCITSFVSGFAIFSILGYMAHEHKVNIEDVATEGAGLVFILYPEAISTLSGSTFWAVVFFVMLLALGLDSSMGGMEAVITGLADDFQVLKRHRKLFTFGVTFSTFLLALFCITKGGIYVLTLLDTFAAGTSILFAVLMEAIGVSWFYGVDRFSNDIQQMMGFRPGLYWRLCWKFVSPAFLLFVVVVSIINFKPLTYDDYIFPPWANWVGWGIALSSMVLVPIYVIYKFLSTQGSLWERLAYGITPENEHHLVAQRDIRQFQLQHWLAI
T2 sequence (P31645 whole entry): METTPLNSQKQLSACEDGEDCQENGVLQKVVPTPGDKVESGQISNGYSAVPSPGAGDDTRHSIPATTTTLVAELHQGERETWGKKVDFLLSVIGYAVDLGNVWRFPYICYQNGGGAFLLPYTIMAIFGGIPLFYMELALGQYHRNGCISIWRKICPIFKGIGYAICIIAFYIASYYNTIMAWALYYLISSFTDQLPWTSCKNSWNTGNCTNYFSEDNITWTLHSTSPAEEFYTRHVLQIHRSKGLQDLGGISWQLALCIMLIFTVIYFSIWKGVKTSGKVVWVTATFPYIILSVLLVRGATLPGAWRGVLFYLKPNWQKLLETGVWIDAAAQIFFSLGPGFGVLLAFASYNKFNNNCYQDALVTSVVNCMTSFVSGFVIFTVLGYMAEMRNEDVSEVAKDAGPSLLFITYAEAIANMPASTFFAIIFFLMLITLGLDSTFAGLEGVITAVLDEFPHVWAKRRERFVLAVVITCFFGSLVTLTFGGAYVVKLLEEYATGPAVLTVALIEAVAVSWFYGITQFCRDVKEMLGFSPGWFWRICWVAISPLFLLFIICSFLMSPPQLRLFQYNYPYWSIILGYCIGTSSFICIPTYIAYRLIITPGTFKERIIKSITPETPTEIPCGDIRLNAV
T1 sequence (Q01959 whole entry): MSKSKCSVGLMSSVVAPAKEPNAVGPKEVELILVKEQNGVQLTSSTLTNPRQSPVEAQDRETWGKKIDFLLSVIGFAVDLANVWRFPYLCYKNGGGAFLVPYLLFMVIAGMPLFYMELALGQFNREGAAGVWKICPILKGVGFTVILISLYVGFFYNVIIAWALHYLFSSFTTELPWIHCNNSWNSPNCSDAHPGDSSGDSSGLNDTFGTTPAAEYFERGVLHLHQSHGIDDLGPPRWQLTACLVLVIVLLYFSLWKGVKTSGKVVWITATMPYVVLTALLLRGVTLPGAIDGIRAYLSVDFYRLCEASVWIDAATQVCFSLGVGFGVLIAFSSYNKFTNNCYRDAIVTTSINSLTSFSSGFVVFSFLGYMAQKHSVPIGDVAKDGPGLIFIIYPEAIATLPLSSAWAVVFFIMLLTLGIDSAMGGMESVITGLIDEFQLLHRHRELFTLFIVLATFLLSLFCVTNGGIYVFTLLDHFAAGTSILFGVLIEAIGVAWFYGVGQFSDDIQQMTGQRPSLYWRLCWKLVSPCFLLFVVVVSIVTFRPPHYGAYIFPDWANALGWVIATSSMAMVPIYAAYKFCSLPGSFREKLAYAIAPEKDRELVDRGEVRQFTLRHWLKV

Question: With COc1ccc(N(Cc2ccc(F)cc2)C(=O)c2cc[nH]c2)cc1 [Compound 12a, N-(4-Fluorobenzyl)-N-(4-methoxyphenyl)-1H-pyrrole-3-carboxamide] as the compound, how does the EC50 (CV-A24; Enterovirus C, CVA24, HeLa R19, read-out: EC50 Exp1) read?
Answer: 3.29 µM

Question: What about the EC50 (CV-A24; Enterovirus C, CVA24, HeLa R19, read-out: EC50 Exp2) of the same compound?
Answer: 3.73 µM

Question: And the EC50 (CV-A24; read-out: EC50 Exp1)?
Answer: 3.04 µM

Question: What about the EC50 (CV-A24; read-out: EC50 Exp2) of the same compound?
Answer: 3.87 µM

Question: And the “DAT, Mean (Figure 8B)” value (human DAT; 1µM)?
Answer: 80.4016

Question: What about the “DAT, Mean as % (Figure 8B)” value (human DAT; 1µM) of the same compound?
Answer: 80%

Question: And the “DAT, Mean (Figure 8B)” value (human DAT; 100µM)?
Answer: 86.9569

Question: What about the “DAT, Mean as % (Figure 8B)” value (human DAT; 100µM) of the same compound?
Answer: 87%

Question: What about the “inhibition of DAT function (in words)” value (human DAT; HEK293 cells expressing human DAT, 1 μM or 100 μM) of the same compound?
Answer: neither 12a, 19b, 19d, nor the combined compound 12b inhibited

Question: And the “SERT, Mean (Figure 8B)” value (human SERT; 1µM)?
Answer: 99.47

Question: What about the “SERT, Mean as % (Figure 8B)” value (human SERT; 1µM) of the same compound?
Answer: 99%

Question: What about the “SERT, Mean (Figure 8B)” value (human SERT; 100µM) of the same compound?
Answer: 114.09

Question: And the “SERT, Mean as % (Figure 8B)” value (human SERT; 100µM)?
Answer: 114%

Question: What about the “inhibition of SERT-mediated uptake (in words)” value (human SERT; HEK293 cells expressing human SERT, 1 and 100 μM) of the same compound?
Answer: neither 12a, 19b, 19d, nor the combined compound 12b inhibited

Question: What about the “virus titer, TCID50/ml (Figure 2A)” value (EV-A71 (strain BrCr); compound concentration 1 µM) of the same compound?
Answer: 316228 TCID50/ml

Question: What about the “virus titer, TCID50/ml (Figure 2A)” value (EV-A71 (strain BrCr); compound concentration 3 µM) of the same compound?
Answer: 316.228 TCID50/ml

Question: What about the “virus titer, TCID50/ml (Figure 2A)” value (EV-A71 (strain BrCr); compound concentration 10 µM) of the same compound?
Answer: 316.228 TCID50/ml

Question: And the “virus titer, TCID50/ml (Figure 2A)” value (EV-A71 (strain BrCr); compound concentration 30 µM)?
Answer: 316.228 TCID50/ml

Question: What about the “virus titer, TCID50/ml (Figure 2A)” value (EV-A71 (strain BrCr); compound concentration 100 µM) of the same compound?
Answer: 316.228 TCID50/ml

Question: What about the “virus titer, TCID50/ml (Figure 2A)” value (EV-A71 (strain BrCr); compound concentration 150 µM) of the same compound?
Answer: 316.228 TCID50/ml

Question: What about the “Figure 7 dose-response raw data, HRV_B14 (triplicate values)” value (“Figure 7 dose-response raw data, HRV_B14” below) (HRV-B14; Concentration 0.0046 µM) of the same compound?
Answer: 15.2266 and 14.5606

Question: What about the “Figure 7 dose-response raw data, HRV_B14” value (HRV-B14; Concentration 0.0412 µM) of the same compound?
Answer: 11.568 and 20.943 and 17.6535

Question: What about the “Figure 7 dose-response raw data, HRV_B14” value (HRV-B14; Concentration 0.3704 µM) of the same compound?
Answer: 18.8048 and 20.943 and 27.193

Question: What about the “Figure 7 dose-response raw data, HRV_B14” value (HRV-B14; Concentration 1.1111 µM) of the same compound?
Answer: 18.8048 and 20.943 and 27.193

Question: And the “Figure 7 dose-response raw data, HRV_B14” value (HRV-B14; Concentration 3.3333 µM)?
Answer: 94.6272 and 95.7785 and 85.4167

Question: What about the “Figure 7 dose-response raw data, HRV_B14” value (HRV-B14; Concentration 11.1111 µM) of the same compound?
Answer: 94.6272 and 95.7785 and 85.4167

Question: And the “Figure 7 dose-response raw data, HRV_B14” value (HRV-B14; Concentration 33.3333 µM)?
Answer: 98.3946 and 104.147 and 102.94

Question: And the “Figure 7 dose-response raw data, HRV_B14” value (HRV-B14; Concentration 100 µM)?
Answer: 89.5652 and 94.1472 and 100.034

Question: What about the EC50 (HRV-B14; HRVB14, HeLa R19, read-out: EC50 Exp1) of the same compound?
Answer: 1660 nM

Question: And the EC50 (HRV-B14; HRVB14, HeLa R19, read-out: EC50 HRV-B14)?
Answer: 1450 ± 210 nM

Question: What about the “NET, Mean (Figure 8B)” value (human NET; 1µM) of the same compound?
Answer: 121.035

Question: And the “NET, Mean as % (Figure 8B)” value (human NET; 1µM)?
Answer: 121%

Question: What about the “NET, Mean (Figure 8B)” value (human NET; 100µM) of the same compound?
Answer: 112.597

Question: And the “NET, Mean as % (Figure 8B)” value (human NET; 100µM)?
Answer: 113%

Question: And the “inhibition of NET function (in words)” value (human NET; HEK293 cells expressing human NET, 1 μM or 100 μM)?
Answer: neither 12a, 19b, 19d, nor the combined compound 12b inhibited

Question: What about the EC50 (CV-B3) of the same compound?
Answer: 40 ± 20 nM

Question: And the EC50 (CV-B3; read-out: EC50 BGM Average)?
Answer: 35 nM

Question: And the EC50 (CV-B3; read-out: Exp 1 EC50 BGM)?
Answer: 20 nM

Question: And the EC50 (CV-B3; read-out: Exp 2 EC50 BGM)?
Answer: 50 nM

Question: What about the “cytotoxicity (in words)” value (HeLa R19 cells) of the same compound?
Answer: no cytotoxicity

Question: What about the “virus titer, TCID50/ml (Figure 2A)” value (CV-A24 (strain Joseph); compound concentration 0.1 µM) of the same compound?
Answer: 469824 TCID50/ml and 562341 TCID50/ml and 300000 TCID50/ml

Question: What about the “virus titer, TCID50/ml (Figure 2A)” value (CV-A24 (strain Joseph); compound concentration 1 µM) of the same compound?
Answer: 169824 TCID50/ml and 316228 TCID50/ml

Question: And the “virus titer, TCID50/ml (Figure 2A)” value (CV-A24 (strain Joseph); compound concentration 100 µM)?
Answer: 316.228 TCID50/ml

Question: And the “Figure 7 dose-response raw data, HRV-A2 (triplicate values)” value (shortened to “Figure 7 dose-response raw data, HRV-A2”) (HRV-A2; Concentration 0.0412 µM)?
Answer: 16.3585 and 16.9681 and 15.3831

Question: And the “Figure 7 dose-response raw data, HRV-A2” value (HRV-A2; Concentration 0.3704 µM)?
Answer: 15.1392 and 18.0654 and 15.3831

Question: What about the “Figure 7 dose-response raw data, HRV-A2” value (HRV-A2; Concentration 1.1111 µM) of the same compound?
Answer: 18.0654 and 16.8462 and 24.4056

Question: And the “Figure 7 dose-response raw data, HRV-A2” value (HRV-A2; Concentration 3.3333 µM)?
Answer: 11.1156 and 18.0654 and 21.7232

Question: What about the “Figure 7 dose-response raw data, HRV-A2” value (HRV-A2; Concentration 11.1111 µM) of the same compound?
Answer: 48.3946 and 57.9264 and 41.9398

Question: What about the “Figure 7 dose-response raw data, HRV-A2” value (HRV-A2; Concentration 33.3333 µM) of the same compound?
Answer: 99.5652 and 104.147 and 100.034

Question: And the “Figure 7 dose-response raw data, HRV-A2” value (HRV-A2; Concentration 100 µM)?
Answer: 89.5652 and 104.147 and 110.034

Question: And the EC50 (HRV-A2; Human rhinovirus sp., HRVA2, HeLa R19, read-out: EC50 HRV-A2)?
Answer: 8.51 ± 0.22 µM

Question: What about the “Figure 7 dose-response raw data, CV-A24v (triplicate values)” value (“Figure 7 dose-response raw data, CV-A24v” for short) (CV-A24v; Concentration 0.0046 µM) of the same compound?
Answer: 10.497 and 11.7005 and 9.1598

Question: And the “Figure 7 dose-response raw data, CV-A24v” value (CV-A24v; Concentration 0.0137 µM)?
Answer: 16.1819 and 13.1094 and 20.3605

Question: And the “Figure 7 dose-response raw data, CV-A24v” value (CV-A24v; Concentration 0.0412 µM)?
Answer: 16.1819 and 13.1094 and 20.3605

Question: And the “Figure 7 dose-response raw data, CV-A24v” value (CV-A24v; Concentration 0.1235 µM)?
Answer: 12.9865 and 12.4949 and 21.3437

Question: What about the “Figure 7 dose-response raw data, CV-A24v” value (CV-A24v; Concentration 0.3704 µM) of the same compound?
Answer: 12.7407 and 14.2155 and 15.1987

Question: What about the “Figure 7 dose-response raw data, CV-A24v” value (CV-A24v; Concentration 1.1111 µM) of the same compound?
Answer: 10.0369 and 10.7743 and 14.83

Question: And the “Figure 7 dose-response raw data, CV-A24v” value (CV-A24v; Concentration 3.3333 µM)?
Answer: 9.791 and 10.5285 and 14.2155

Question: And the “Figure 7 dose-response raw data, CV-A24v” value (CV-A24v; Concentration 11.1111 µM)?
Answer: 82.2926 and 86.3728 and 89.8506

Question: What about the “Figure 7 dose-response raw data, CV-A24v” value (CV-A24v; Concentration 33.3333 µM) of the same compound?
Answer: 113.496 and 111 and 111.553

Question: And the “Figure 7 dose-response raw data, CV-A24v” value (CV-A24v; Concentration 100 µM)?
Answer: 106.3 and 102.374 and 110.232

Question: And the EC50 (CV-A24v; HeLa R19, read-out: EC50 CV-A24v strain 110386)?
Answer: 1940 ± 70 nM

Question: What about the EC50 (CV-A24v; HeLa R19, read-out: EC50 CV-A24v strain 110389) of the same compound?
Answer: 3770 ± 320 nM

Question: And the EC50 (CV-A24v; HeLa R19, read-out: EC50 CV-A24v strain 110390)?
Answer: 1910 ± 550 nM

Question: What about the EC50 (CV-A24v; HeLa R19, read-out: EC50 CV-A24v strain 110392) of the same compound?
Answer: 2320 ± 230 nM
